Reference: the OligoGym collection
After the bases stand the sugars from the 5' end (letter, count) and the backbone: PS all phosphorothioate, else s phosphorothioate and o phosphodiester by linkage. Methylation of C is not given here. e = 2'-O-(2-methoxyethyl) (MOE); k = constrained ethyl (cEt); d = 2'-deoxy (DNA); m = 2'-O-methyl

Target: HSD17B13
Conditions: ASO, HepaRG

Row | Sequence | target mRNA inhibition (1 µM) [%] | also measured
1 | ACAGATTGGAATGCTA (sugars k3 d1 m1 d8 k3, PS) | 70 | 
2 | GAGACAAGAGTTCTTG (sugars k3 d10 k3, PS) | 19 | 
3 | ATGTTTTGATCCAGGG (sugars k3 d10 k3, PS) | 46 | 
4 | GTCCACCTTTAAATGG (sugars k3 d10 k3, PS) | 33 | 
5 | CATATCATTATCATGC (sugars k3 d10 k3, PS) | 66 | 
6 | CGTCAAAAACCGTCAA (sugars k3 d10 k3, PS) | 20 | 
7 | CCACAGAACCAATATG (sugars k3 d10 k3, PS) | 49 | 
8 | TAATAGCCAGTACAGT (sugars k3 d9 k3 e1, PS) | 64 | 
9 | CTAGGGAAATCTTTCA (sugars k3 d9 k3 e1, PS) | 55 | 
10 | GTAAGAGTCAGTATCC (sugars k3 d10 k3, PS) | 47 | 
11 | TTATACTTTTCCGTCT (sugars k3 d10 k3, PS) | 61 | 
12 | TTAGTATTTGGGTGTT (sugars k3 d10 k3, PS) | 29 | 
13 | GCTGGAACAATATGGG (sugars k3 d10 k3, PS) | 36 | 
14 | ATTGAATAGCCATGTA (sugars k3 d10 k3, PS) | 39 | 
15 | GCCTTGAATAGCAAGC (sugars k3 d10 k3, PS) | 32 | 
16 | TGCAGAAATTCACCTT (sugars k3 d10 k3, PS) | 54 | 
17 | GGCTAGGATTAATCAT (sugars k3 d10 k3, PS) | 44 | 
18 | AGACAGGTAATTAATC (sugars k3 d10 k3, PS) | 29 | 
19 | CATCTTAAGATACCCA (sugars kkdddddddddkekek, PS) | 59 | 
20 | TTTAGGATTAATTCCC (sugars k3 d10 k3, PS) | 16 | 
21 | TACACCACACTAATGA (sugars k3 d10 k3, PS) | 26 | 
22 | TGACATAACTACTTCA (sugars k3 d10 k3, PS) | 22 | 
23 | CAGTAAAATTATGCCT (sugars k3 d10 k3, PS) | 38 | 
24 | TAAATCCAAATCACTC (sugars k3 d10 k3, PS) | 39 | 

Row | Sequence | target mRNA inhibition (1 µM) [%] | also measured
25 | AGTGCATCTTAAGATA (sugars k3 d9 k3 e1, PS) | 12 | 
26 | TACCUCTAAGTTAGCC (sugars k3 d1 m1 d8 k3, PS) | 13 | 
27 | TCTAAGTTAGCCCCCA (sugars k3 d9 k3 e1, PS) | 0 | 
28 | TTCTACAGAAGACTAC (sugars k3 d10 k3, PS) | 40 | 
29 | TTCGGCACTCAGCTGC (sugars k3 d10 k3, PS) | 41 | 
30 | GATTTGAAGGTTAGAT (sugars k3 d10 k3, PS) | 47 | 
31 | CCACTGTGACGATGTG (sugars k3 d10 k3, PS) | 0 | 
32 | GAATAGCAAGCCAACA (sugars k3 d1 m1 d8 k3, PS) | 23 | 
33 | CAGGGTGGTAACGGTG (sugars k3 d1 m1 d8 k3, PS) | 29 | 
34 | CTCTAAGTTAGCCCCC (sugars k3 d10 k3, PS) | 38 | 
35 | GAGAGTAATCAGTTTT (sugars k3 d10 k3, PS) | 27 | 
36 | GACTTCAGAGTTATAC (sugars k3 d10 k3, PS) | 16 | 
37 | CATTTAGCAGCTTGGA (sugars k3 d10 k3, PS) | 88 | target mRNA inhibition (0.02 µM): 0%; target mRNA inhibition (0.078 µM): 0%; target mRNA inhibition (0.313 µM): 54%; target mRNA inhibition (1.25 µM): 75%; target mRNA inhibition (5 µM): 86%
38 | GATGGTAAGTCAAATA (sugars k3 d10 k3, PS) | 85 | target mRNA inhibition (0.02 µM): 22%; target mRNA inhibition (0.078 µM): 34%; target mRNA inhibition (0.313 µM): 47%; target mRNA inhibition (1.25 µM): 74%; target mRNA inhibition (5 µM): 90%
39 | CCACTATCAGAACAGT (sugars k3 d10 k3, PS) | 31 | 
40 | CTATAGTAATCACAAG (sugars kkdddddddddkekek, PS) | 36 | 
41 | TAAGCTGAGAGTTCTA (sugars k3 d10 k3, PS) | 64 | 
42 | GATTGCACAAACCACA (sugars k3 d10 k3, PS) | 73 | 
43 | ATGAGGTTTTGATACC (sugars kkdddddddddkekek, PS) | 51 | 
44 | TTTAGAGAGCGATAGA (sugars k3 d10 k3, PS) | 13 | 
45 | ATATAGAGGGTCCACT (sugars k3 d10 k3, PS) | 18 | 
46 | CTCGGGAAGTTTAGAC (sugars k3 d10 k3, PS) | 47 | 
47 | GTTGATATTCTGTGGC (sugars kkdddddddddkekek, PS) | 69 | 
48 | AGAGGATAGTCCATGC (sugars k3 d1 m1 d8 k3, PS) | 53 | 

Row | Sequence | target mRNA inhibition (1 µM) [%] | also measured
49 | CTTCACCTGATTTAGA (sugars k3 d10 k3, PS) | 7 | 
50 | AAGGCCTGAAGTTCTG (sugars k3 d10 k3, PS) | 5 | 
51 | TTTAGCAGCTTGGAAG (sugars k3 d10 k3, PS) | 43 | 
52 | TTAAGATACCCAGGTT (sugars k3 d9 k3 e1, PS) | 51 | 
53 | TACTAATGTCCAAGGA (sugars k3 d10 k3, PS) | 77 | target mRNA inhibition (0.02 µM): 4%; target mRNA inhibition (0.078 µM): 0%; target mRNA inhibition (0.313 µM): 38%; target mRNA inhibition (1.25 µM): 64%; target mRNA inhibition (5 µM): 75%
54 | ATCCTATATACATCCA (sugars kkdddddddddkekek, PS) | 65 | 
55 | ATTGTATGAGGTCTCT (sugars k3 d10 k3, PS) | 49 | 
56 | CAGAGACATGAGGTTT (sugars k3 d1 m1 d8 k3, PS) | 61 | 
57 | ATACGACTTCCTTCTA (sugars k3 d10 k3, PS) | 44 | 
58 | CAAAGTTAATAGGACT (sugars k3 d10 k3, PS) | 50 | 
59 | CTCATTATAAGCTAAC (sugars k3 d10 k3, PS) | 13 | 
60 | TTATATGAGGTCTGTA (sugars k3 d10 k3, PS) | 32 | 
61 | TTATTGGTAAGTATTC (sugars k3 d10 k3, PS) | 17 | 
62 | GGTTGAGATAAAGCTG (sugars kkdddddddddkekek, PS) | 60 | 
63 | TTCTGTGGCATGGCTA (sugars k3 d10 k3, PS) | 78 | target mRNA inhibition (0.02 µM): 0%; target mRNA inhibition (0.078 µM): 0%; target mRNA inhibition (0.313 µM): 34%; target mRNA inhibition (1.25 µM): 67%; target mRNA inhibition (5 µM): 91%
64 | TAGTTTGGTGGGCATG (sugars k3 d10 k3, PS) | 28 | 
65 | ACTATCAGAACAGTTC (sugars k3 d10 k3, PS) | 62 | 
66 | GGTCACCTTTCATAAT (sugars k3 d10 k3, PS) | 57 | 
67 | AGGTUGAGATAAAGCT (sugars k3 d1 m1 d8 k3, PS) | 58 | 
68 | CAGTAGGTGTGTTTCA (sugars k3 d10 k3, PS) | 47 | 
69 | ATATGTCCAGGTTGAG (sugars k3 d1 m1 d8 k3, PS) | 48 | 
70 | CAACTATGTAATAGGC (sugars k3 d10 k3, PS) | 79 | target mRNA inhibition (0.02 µM): 1%; target mRNA inhibition (0.078 µM): 17%; target mRNA inhibition (0.313 µM): 42%; target mRNA inhibition (1.25 µM): 73%; target mRNA inhibition (5 µM): 92%
71 | GGTGGTAACGGTGATC (sugars kkdddddddddkekek, PS) | 39 | 
72 | ATAATAATAGCTCTAT (sugars k3 d10 k3, PS) | 1 | 

Row | Sequence | target mRNA inhibition (1 µM) [%] | also measured
73 | TTGAATTCACTATCTC (sugars k3 d10 k3, PS) | 45 | 
74 | TTCTCAAGGAGTACTT (sugars k3 d10 k3, PS) | 76 | 
75 | AAAAAGCTTATCGAGT (sugars k3 d10 k3, PS) | 8 | 
76 | TTGTTAAGCAGATGGC (sugars k3 d10 k3, PS) | 84 | target mRNA inhibition (0.02 µM): 1%; target mRNA inhibition (0.078 µM): 1%; target mRNA inhibition (0.313 µM): 30%; target mRNA inhibition (1.25 µM): 79%; target mRNA inhibition (5 µM): 85%
77 | ACTGATACATACCACT (sugars k3 d10 k3, PS) | 52 | 
78 | CGTAGCAAATGTAAGA (sugars k3 d10 k3, PS) | 0 | 
79 | GCAAATGTAAGAAGCC (sugars k3 d10 k3, PS) | 4 | 
80 | GATAAGAAGAGAGCTC (sugars k3 d10 k3, PS) | 36 | 
81 | GATTAAGGCAAAGATC (sugars k3 d10 k3, PS) | 25 | 
82 | AAAGTCAGTATCCCCT (sugars k3 d10 k3, PS) | 77 | target mRNA inhibition (0.02 µM): 7%; target mRNA inhibition (0.078 µM): 21%; target mRNA inhibition (0.313 µM): 40%; target mRNA inhibition (1.25 µM): 79%; target mRNA inhibition (5 µM): 82%
83 | TCTATACAAAGGCAGT (sugars k3 d10 k3, PS) | 53 | 
84 | GTAGTCTGCCTGCCTA (sugars k3 d10 k3, PS) | 68 | 
85 | AGTAGGAGTAGATGAT (sugars k3 d10 k3, PS) | 0 | 
86 | GCCAATTCACATATGT (sugars k3 d10 k3, PS) | 34 | 
87 | CACCATGAAGGACTCC (sugars k3 d10 k3, PS) | 48 | 
88 | CGTTTATCATATGCTA (sugars k3 d10 k3, PS) | 88 | target mRNA inhibition (0.02 µM): 9%; target mRNA inhibition (0.078 µM): 29%; target mRNA inhibition (0.313 µM): 57%; target mRNA inhibition (1.25 µM): 77%; target mRNA inhibition (5 µM): 86%
89 | AAGGAGCCAGTTATGA (sugars k3 d10 k3, PS) | 57 | 
90 | CTATAGTAATCACAAG (sugars k3 d9 k3 e1, PS) | 53 | 
91 | GAAACCTTCATGCTAG (sugars k3 d10 k3, PS) | 31 | 
92 | ACCAAACTTCCAGCAG (sugars k3 d9 k3 e1, PS) | 36 | 
93 | TGCTAGTGCCAAACCA (sugars kkdddddddddkekek, PS) | 58 | 
94 | AAATATGTCCAGGTTG (sugars k3 d9 k3 e1, PS) | 74 | target mRNA inhibition (0.02 µM): 3%; target mRNA inhibition (0.078 µM): 0%; target mRNA inhibition (0.313 µM): 16%; target mRNA inhibition (1.25 µM): 60%; target mRNA inhibition (5 µM): 88%
